Measurements published in EPA's ToxValDB 9.5 (doi:10.2903/j.efsa.2017.4988).
Values after ≈ are worked out from the molar mass of the structure shown.

Experiments:
Anas platyrhynchos = details: acute; oral; unspecified; mortality
Anomia sp. = details: acute; duration: 96 hours; mortality
Apis mellifera = details: acute, mortality
Canidae = details: oral, Dog Other
Cyprinodon variegatus = details: acute; duration: 96 hours; mortality
Daphnia magna = details: chronic/long-term; duration: 21 days
Gammaridae = details: chronic/long-term; duration: 28 days
Hypoaspis aculeifer = details: chronic/long-term; duration: 14 days; reproduction
Oncorhynchus mykiss = details: chronic/long-term; duration: 89 days; mortality
Rattus norvegicus = details: for LD50: acute, mortality
Aphidius rhopalosiphi = experiment: LR50; higher = less toxic; details: not reported; mortality

SMILES	LD50 (Anas platyrhynchos) [mg/kg]	LC50 (Anomia sp.) [ng/mL]	LD50 (Apis mellifera; dermal) [µg/piece]	LD50 (Apis mellifera; oral, unspecified) [µg/piece]	NOAEL (Canidae; chronic, duration: 1 years) [mg/kg-day]	NOAEL (Canidae; subchronic, duration: 90 days) [mg/kg-day]	LC50 (Colinus virginianus; acute, oral, diet, mortality) [mg/kg-day]	NOEC (Colinus virginianus; chronic) [mg/kg-day]	LC50 (Cyprinodon variegatus) [ng/mL]	NOEC (Daphnia magna) [mg/L]	NOEC (Gammaridae) [mg/kg]	NOEC (Hypoaspis aculeifer) [mg/kg]	NOEC (Oncorhynchus mykiss) [mg/L]	LD50 (Rattus norvegicus; oral) [mg/kg]	NOAEL (Rattus norvegicus; chronic, duration: 2 years) [mg/kg-day]	NOAEL (Rattus norvegicus; reproduction developmental, organ weight) [mg/kg-day]	LC50 (Tagia sp.; acute, duration: 14 days, mortality) [mg/kg]	NOEC (Tagia sp.; chronic/long-term, duration: 56 days, reproduction) [mg/kg]	LR50 (Aphidius rhopalosiphi) [g/ha]	LD50 (Rattus norvegicus) [mg/kg]
CCOc1cc(C(C)(C)C)ccc1C1COC(c2c(F)cccc2F)=N1 (stereo not given) [Etoxazole]	> 2000	4.3 (≈ 0.012 µM)	> 200	> 200	5	5	1270	28.6	> 160	0.00013	0.86	0.2	0.015	> 5000	4	24.5	> 1000	5	> 55	
CCOc1cc(C(C)(C)C)ccc1C(N)COC(=O)c1c(F)cccc1F (stereo not given)																				> 5000
